Laboratory results from the NIST ThermoML archive (doi:10.1016/j.jct.2018.07.026).
± gives the expanded uncertainty stated by the source.

Experiments:
[1] = Molar enthalpy of transition or fusion; conditions: Crystal 1; DSC
[2] = molar heat capacity at constant pressure; conditions: 78.8 kPa, Crystal, DSC

O=C(O)c1ccc([N+](=O)[O-])cc1C(=O)O [4-nitrophthalic acid]
Conditions | mass density [kg/m3]
298.15 K, 101.33 kPa, Crystal, Pycnometric method | 1647 ± 12

Conditions | Molar enthalpy of transition or fusion [kcal/mol] | Normal melting temperature [°C]
Crystal 1, DTA | – | 167 ± 0.8
[1] | 8.84 ± 0.191 | –

[2]
Conditions | molar heat capacity at constant pressure [J/K/mol]
295.15 K | 229.53 ± 21
296.15 K | 230.9 ± 21
297.15 K | 232.06 ± 21
298.15 K | 233.01 ± 21
299.15 K | 233.22 ± 21
300.15 K | 234.59 ± 21
301.15 K | 236.28 ± 21
302.15 K | 237.02 ± 21
303.15 K | 237.97 ± 21
304.15 K | 239.13 ± 21
305.15 K | 239.66 ± 21
306.15 K | 240.19 ± 21
307.15 K | 240.5 ± 21
308.15 K | 240.61 ± 21
309.15 K | 240.93 ± 21
310.15 K | 242.51 ± 21
311.15 K | 241.24 ± 21
312.15 K | 242.62 ± 21
313.15 K | 243.57 ± 21
314.15 K | 244.09 ± 21
315.15 K | 244.83 ± 21
316.15 K | 245.36 ± 21
317.15 K | 246.1 ± 21
318.15 K | 246.2 ± 21
319.15 K | 246.94 ± 21
320.15 K | 248 ± 21
321.15 K | 248.74 ± 21
322.15 K | 249.37 ± 21
323.15 K | 250.22 ± 21
324.15 K | 250.95 ± 21
325.15 K | 251.69 ± 21
326.15 K | 252.22 ± 21
327.15 K | 252.64 ± 21
328.15 K | 253.38 ± 21
329.15 K | 254.02 ± 21
330.15 K | 254.54 ± 21
331.15 K | 255.07 ± 21
332.15 K | 255.71 ± 21
333.15 K | 256.23 ± 21
334.15 K | 256.76 ± 21
335.15 K | 257.5 ± 21
336.15 K | 258.34 ± 21
337.15 K | 256.97 ± 21
338.15 K | 258.45 ± 21
339.15 K | 258.98 ± 21
340.15 K | 259.4 ± 21
341.15 K | 259.93 ± 21
342.15 K | 260.67 ± 21
343.15 K | 261.41 ± 21
344.15 K | 261.72 ± 21
345.15 K | 262.25 ± 21
346.15 K | 262.78 ± 21
347.15 K | 263.52 ± 21
348.15 K | 263.94 ± 21
349.15 K | 264.47 ± 21
350.15 K | 264.99 ± 21
351.15 K | 265.42 ± 21
352.15 K | 266.05 ± 21
353.15 K | 266.26 ± 21
354.15 K | 266.79 ± 21
355.15 K | 267.32 ± 21
356.15 K | 267.74 ± 21
357.15 K | 267.95 ± 21
358.15 K | 268.58 ± 21
359.15 K | 268.9 ± 21
360.15 K | 269.64 ± 21
361.15 K | 269.85 ± 21
362.15 K | 270.27 ± 21
363.15 K | 270.59 ± 21
364.15 K | 271.12 ± 21
365.15 K | 271.86 ± 21
366.15 K | 272.17 ± 21
367.15 K | 272.81 ± 21
368.15 K | 273.23 ± 21
369.15 K | 274.07 ± 21
370.15 K | 274.39 ± 21
371.15 K | 275.02 ± 21
372.15 K | 275.23 ± 21
373.15 K | 275.66 ± 21
374.15 K | 276.29 ± 21
375.15 K | 276.61 ± 21
376.15 K | 277.03 ± 21
377.15 K | 277.56 ± 21
378.15 K | 278.51 ± 21
379.15 K | 279.03 ± 21
380.15 K | 279.56 ± 21
381.15 K | 280.3 ± 21
382.15 K | 280.83 ± 21
383.15 K | 281.57 ± 21
384.15 K | 282.1 ± 22
385.15 K | 282.84 ± 21
386.15 K | 283.26 ± 21
387.15 K | 284.21 ± 21
388.15 K | 284.95 ± 22
389.15 K | 285.37 ± 22
390.15 K | 286.64 ± 22
391.15 K | 287.48 ± 22
392.15 K | 288.22 ± 22
393.15 K | 288.32 ± 22
394.15 K | 289.27 ± 22
395.15 K | 290.33 ± 22
